Laboratory results: patent EP4692094A1 (Beijing Konruns Pharmaceutical Co., Ltd., priority 2023, dated 2024)

How the values were obtained:
KAT6A = molecular target: T1, KAT6A (Homo sapiens, UniProt Q92794); assay: Enzymatic activity assay for KAT6A acetyltransferase (TR-FRET, acetylation of histone substrate H3); type: biochemical
T1 construct: purchased active motife (Active Motif) 81223
Procedure, shortened: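 TR-FRET detection of biotinylated H3 acetylation by KAT6A with acetyl-CoA; compounds in 10-point 3-fold dilution (0.5% DMSO final) preincubated with enzyme 10 min at 25 °C, then 90 min reaction and 60 min Eu-antibody/ULight-SA detection at 25 °C. HTRF 665/615 ratio normalised to DMSO (0%) and top-dose control (100%); IC50 by nonlinear fit.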

[1] = Assay for plasma protein binding rate (equilibrium dialysis), human plasma; type: in vitro ADME; settings: dialysis 6 h at 37 °C, read-out: Human (Fu%)
Protocol: (§1) 1.1 Preparation of compounds: The compounds prepared in the examples were each dissolved in dimethylsulfoxide to give solutions at a concentration of 10 mmol/L. • 1) The example compounds were each diluted from 10 mmol/L stock solution to 0.2 mmol/L, i.e., 1 µL of the compound was added to 49 µL of DMSO; • 2) 3 µL of 0.2 mmol/L test compounds were added to 597 µL of blood plasma, and the mixtures were vortexed at 1000 rpm for 2 min; • 3) 50 µL of the plasma containing the drug in 2) was taken, 50 µL of PBS was added, and 300 µL of methanol internal standard* was added to serve as a sample T0; • 4) 120 µL of the plasma containing the drug in 2) was taken and added to one side of an HTD device membrane, and 120 µL of PBS was added to the other side of the membrane; a breathable film was covered, and the plasma and the residual sample in 2) were balanced at 37 °C (100 rpm and 5% CO2) for 6 h; • 5) 50 µL of the dialyzed plasma side sample was taken, 50 µL of PBS was added, and 300 µL of methanol internal standard* was added to serve as a sample P; • 6) 50 µL of the dialyzed PBS side sample was taken, 50 µL of blank plasma was added, and 300 µL of methanol internal standard* was added to serve as a sample B; • 7) 50 µL of the plasma containing the drug in 2) was taken, 50 µL of PBS was added, and 300 µL of methanol internal standard* was added to serve as a sample T6; • 8) All samples were vortexed, mixed homogeneously, and then centrifuged at 3220 g for 40 min at 4 °C; • 9) 100 µL of the supernatant and 100 µL of purified water were mixed homogenously for liquid chromatography-mass spectrometry.
(§2) An internal standard method was used, and the plasma protein binding rate, recovery rate, and residual percentage were calculated by using Excel according to the ratio of the peak area of the sample to the peak area of the internal standard. Free rate(%) = (RatioB)/(RatioP) × 100% [formula] Binding rate(%) = 100%−Free rate% [formula] Recovery rate(%) = (RatioB + RatioP)/(RatioT0) × 100% [formula] Remaining percentage(%) = (RatioT6)/(RatioT0) × 100% [formula]
(§3) RatioB: a ratio of the peak area of the test substance on the PBS side to the peak area of the internal standard; RatioP: a ratio of the peak area of the test substance on the plasma side to the peak area of the internal standard; RatioT6: a ratio of the peak area of the sample after incubation with the test substance for 6 h to the peak area of the internal standard; RatioT0: a ratio of the peak area of the sample after incubation with the test substance for 0 h to the peak area of the internal standard. Table 8. Plasma protein binding rate (Fu%) data for various species of example compounds

[2] = Assay for plasma protein binding rate (equilibrium dialysis), mouse plasma; type: in vitro ADME; settings: dialysis 6 h at 37 °C, read-out: Mouse (Fu%)
Protocol: as §1, §2, §3

[3] = Assay for plasma protein binding rate (equilibrium dialysis), rat plasma; type: in vitro ADME; settings: dialysis 6 h at 37 °C, read-out: Rat (Fu%)
Protocol: as §1, §2, §3

[4] = Assay for plasma protein binding rate (equilibrium dialysis), dog plasma; type: in vitro ADME; settings: dialysis 6 h at 37 °C, read-out: Dog (Fu%)
Protocol: as §1, §2, §3

[5] = In-vivo pharmacokinetic study in rats; set-up: species or system SD female rats; settings: female, SD, rat, plasma, po, intragastric administration, 5 mg/kg; for AUC(0-t): read-out: AUC0-24h
Protocol: 1.1 Instrument: high-performance liquid chromatograph: SHIMADZU LC-30AD; mass spectrum: AB SCIEX mass spectrometer Triple Quad 5500; all measured data were calculated and processed using Microsoft Excel, and relevant pharmacokinetic parameters were calculated using WinNonlin software. The main obtained kinetic parameters are Tmax, T1/2, Cmax, AUC0-24 h, and AUCinf. […] Sample injection amount: 1 µL.
1.2 Animals: three SD female rats were used. The body weight range was 180-300 g. After purchase, the rats were bred in the experimental animal center for two days for later use. The rats were fasted 12 h before administration and 4 h after administration, and given ad libitum access to water during the assay. Blood samples were taken at predetermined time points after intragastric administration.
1.3 Vehicle: 0.5% HPMC (hydroxypropyl methylcellulose) + 0.4% Tween80 + 99.1% water. Preparation of intragastric administration solution: The compound was precisely weighed, the vehicle was added, and then the drug was completely dissolved by ultrasonication at room temperature for 5 min and prepared into a 0.5 mg/mL solution. After the intragastric administration, blood samples were taken at 0.083 h, 0.25 h, 0.5 h, 1.0 h, 2.0 h, 4.0 h, 7.0 h, and 24 h. The blood collection mode is as follows: 0.2 mL of the jugular vein blood was collected, EDTA-K2 was used as an anticoagulation agent, the collected blood sample was transferred into a microcentrifuge tube containing the anticoagulation agent, and the tube was centrifuged at 4 °C and 4000 g for 5 min to separate the plasma. All plasma samples collected were stored at -75±15 °C until analysis.
The compound was precisely weighed and prepared into a standard curve working solution and a quality control working solution at different concentrations. The blank plasma was added and prepared into a plasma standard curve and a quality control sample. LC/MS/MS analysis was performed after pretreatment using a protein precipitation method, and then the concentration of the compounds described above in the plasma was measured. All measured data were collected and processed by the relevant software, and pharmacokinetic parameters were calculated using Winnonlin software. Table 9. Pharmacokinetic parameters of some compounds in the examples in rats

T1 sequence (Q92794 whole entry): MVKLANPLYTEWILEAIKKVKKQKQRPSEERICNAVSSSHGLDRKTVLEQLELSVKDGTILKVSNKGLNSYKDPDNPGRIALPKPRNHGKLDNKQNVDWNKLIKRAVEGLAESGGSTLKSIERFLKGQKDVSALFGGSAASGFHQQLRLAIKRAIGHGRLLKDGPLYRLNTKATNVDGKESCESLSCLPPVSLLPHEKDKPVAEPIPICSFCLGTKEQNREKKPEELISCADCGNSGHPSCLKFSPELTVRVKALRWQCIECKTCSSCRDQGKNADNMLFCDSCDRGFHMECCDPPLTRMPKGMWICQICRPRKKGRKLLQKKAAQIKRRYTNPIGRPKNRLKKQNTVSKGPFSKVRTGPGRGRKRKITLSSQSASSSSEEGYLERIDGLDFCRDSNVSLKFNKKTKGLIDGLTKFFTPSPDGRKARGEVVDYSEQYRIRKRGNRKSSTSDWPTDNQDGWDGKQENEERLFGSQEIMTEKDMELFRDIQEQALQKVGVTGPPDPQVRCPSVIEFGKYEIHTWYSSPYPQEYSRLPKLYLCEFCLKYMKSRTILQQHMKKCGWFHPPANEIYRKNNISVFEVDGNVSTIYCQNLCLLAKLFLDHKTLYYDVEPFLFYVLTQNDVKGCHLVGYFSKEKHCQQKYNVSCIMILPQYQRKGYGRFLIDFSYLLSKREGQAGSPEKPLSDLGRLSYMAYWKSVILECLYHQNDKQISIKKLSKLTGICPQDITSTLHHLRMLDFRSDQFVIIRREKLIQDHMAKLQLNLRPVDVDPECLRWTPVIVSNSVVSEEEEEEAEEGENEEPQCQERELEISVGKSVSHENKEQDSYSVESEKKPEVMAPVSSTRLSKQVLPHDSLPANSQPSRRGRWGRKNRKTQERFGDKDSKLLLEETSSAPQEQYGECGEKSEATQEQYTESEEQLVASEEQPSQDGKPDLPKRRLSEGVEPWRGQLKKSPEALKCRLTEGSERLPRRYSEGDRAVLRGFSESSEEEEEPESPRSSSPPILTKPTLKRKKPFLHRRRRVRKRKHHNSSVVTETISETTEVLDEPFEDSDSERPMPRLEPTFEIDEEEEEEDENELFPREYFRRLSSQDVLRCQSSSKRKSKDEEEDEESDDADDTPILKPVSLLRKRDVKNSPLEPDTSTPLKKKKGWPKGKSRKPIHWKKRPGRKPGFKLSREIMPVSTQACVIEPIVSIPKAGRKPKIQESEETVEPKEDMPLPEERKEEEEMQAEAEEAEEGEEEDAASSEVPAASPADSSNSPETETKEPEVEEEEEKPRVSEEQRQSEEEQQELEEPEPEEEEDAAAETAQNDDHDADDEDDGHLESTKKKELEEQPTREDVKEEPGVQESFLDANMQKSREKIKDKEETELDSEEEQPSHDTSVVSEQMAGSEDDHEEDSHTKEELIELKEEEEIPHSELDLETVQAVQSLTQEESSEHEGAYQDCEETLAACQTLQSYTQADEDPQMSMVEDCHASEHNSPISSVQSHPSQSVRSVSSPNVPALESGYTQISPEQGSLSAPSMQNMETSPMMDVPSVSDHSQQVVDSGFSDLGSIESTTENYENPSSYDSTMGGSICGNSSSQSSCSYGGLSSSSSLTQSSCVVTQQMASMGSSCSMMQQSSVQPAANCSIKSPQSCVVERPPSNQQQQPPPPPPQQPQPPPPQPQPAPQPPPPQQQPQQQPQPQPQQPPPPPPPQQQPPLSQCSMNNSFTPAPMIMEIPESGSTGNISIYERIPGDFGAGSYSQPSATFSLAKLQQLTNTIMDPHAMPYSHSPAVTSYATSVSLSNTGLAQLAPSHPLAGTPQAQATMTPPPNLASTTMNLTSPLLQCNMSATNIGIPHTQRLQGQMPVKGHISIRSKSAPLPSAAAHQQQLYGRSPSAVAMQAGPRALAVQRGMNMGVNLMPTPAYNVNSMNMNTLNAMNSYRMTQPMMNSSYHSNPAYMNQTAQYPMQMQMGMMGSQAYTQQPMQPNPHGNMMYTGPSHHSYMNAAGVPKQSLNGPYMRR

`COc1nc(Cn2cccn2)cc2onc(NS(=O)(=O)c3cccc4c3OCO4)c12` [Example 28, N-(6-((1H-Pyrazol-1-yl)methyl)-4-methoxyisoxazolo[4,5-c]pyridin-3-yl)-1,3-benzodioxole-4-sulfonamide] showed an IC50 (KAT6A) of 3.55 nM, a fraction unbound at 6 h, 1 µM [1] of 0.0086 and a fraction unbound at 6 h, 1 µM [2] of 0.0205.

In the case of `COc1cc2ccoc2cc1S(=O)(=O)Nc1noc2cc(Cn3cccn3)nc(OC)c12` [Example 44, N-(6-((1H-Pyrazol-1-yl)methyl)-4-methoxyisoxazolo[4,5-c]pyridin-3-yl)-5-methoxybenzofuran-6-sulfonamide], the IC50 (KAT6A) is reported as 8.28 nM, the fraction unbound at 6 h, 1 µM [1] is reported as 0.0149 and the fraction unbound at 6 h, 1 µM [2] is reported as 0.048. For the same molecule, the fraction unbound at 6 h, 1 µM [3] was 0.0176 and the fraction unbound at 6 h, 1 µM [4] was 0.0023.

`COc1ccc2occc2c1S(=O)(=O)Nc1noc2cc(Cn3cccn3)nc(OC)c12` [Example 45, N-(6-((1H-Pyrazol-1-yl)methyl)-4-methoxyisoxazolo[4,5-c]pyridin-3-yl)-5-methoxybenzofuran-4-sulfonamide] showed an IC50 (KAT6A) of 9.45 nM, a fraction unbound at 6 h, 1 µM [1] of 0.0066 and a fraction unbound at 6 h, 1 µM [2] of 0.0145.

With `COc1cc2c(cc1S(=O)(=O)Nc1noc3cc(Cn4cccn4)nc(OC)c13)OCO2` [Example 57, N-(6-((1H-Pyrazol-1-yl)methyl)-4-methoxyisoxazolo[4,5-c]pyridin-3-yl)-6-methoxy-1,3-benzodioxole-5-sulfonamide] the IC50 (KAT6A) was 0.95 nM, the fraction unbound at 6 h, 1 µM [1] was 0.0264 and the fraction unbound at 6 h, 1 µM [2] was 0.0565.

For `COc1cc2c(cc1S(=O)(=O)Nc1noc3cc(Cn4cccn4)nc(OC)c13)CCO2` [Example 60, N-(6-((1H-Pyrazol-1-yl)methyl)-4-methoxyisoxazolo[4,5-c]pyridin-3-yl)-6-methoxy-2,3-dihvdrobenzofuran-5-sulfonamide], the IC50 (KAT6A) was 1.01 nM, the AUC(0-inf) [5] was 26700 ng·h/mL and the Cmax [5] was 2310 ng/mL. It also gave a Tmax [5] of 2.67 h, an AUC(0-t) [5] of 26200 ng·h/mL and a fraction unbound at 6 h, 1 µM [1] of 0.0175. The fraction unbound at 6 h, 1 µM [2] was 0.0358, the fraction unbound at 6 h, 1 µM [3] was 0.0516 and the fraction unbound at 6 h, 1 µM [4] was 0.0345.

In the case of `COc1cc2cccnc2cc1S(=O)(=O)Nc1noc2cc(Cn3cccn3)nc(OC)c12` [Example 75, N-(6-((1H-Pyrazol-1-yl)methyl)-4-methoxyisoxazolo[4,5-c]pyridin-3-yl)-6-methoxyquinoline-7-sulfonamide], the IC50 (KAT6A) is reported as 2.41 nM, the AUC(0-inf) [5] is reported as 30600 ng·h/mL and the Cmax [5] is reported as 10800 ng/mL. For the same molecule, the Tmax [5] was 0.25 h, the AUC(0-t) [5] was 30600 ng·h/mL and the fraction unbound at 6 h, 1 µM [1] was 0.0091. The fraction unbound at 6 h, 1 µM [2] was 0.0163.
